Read-outs that look alike come from different tables or passages of the source.
Assay: in vivo
Conditions: for Mean concentration of Example 4B: single IM 20 mg/kg equivalent of EFdA
Text: General Protocol for Prodrugs Rat PK Studies Conducted at ChemPartner, China
A total of three naïve male Wistar Han rats, 200-250 g, were received from Beijing VR Laboratory Animal Co. LTD. Following an acclimation period, the animals were assigned to the study based on acceptable health as determined by a staff veterinarian and catheter patency. Fasting of the animals before or after dosing was not required.
On Day 1, each animal received a single intramuscular injection of prepared test article at a target dose level of 20 mg/kg equivalent of EFdA and at a dose volume of 2 mL/kg. The injection sites were at gastrocnemius and identified with an indelible marker for daily monitoring during the study. The animals were manually restrained for dosing and were not sedated. The dose suspension was mixed well by inversion before each dose to ensure homogeneity. […] In addition, all animals are monitored twice daily by the veterinary staff for clinical abnormalities.
Blood samples were collected from the study animals as detailed in the sample collection Table 6 below
Each blood sample for PK (200 μL) was collected from tail vein. The blood was transferred to a tube containing NaF/Na2EDTA anticoagulant and inverted several times to mix. Draw 150 μL whole blood from the tube, add 150 uL 100 mM ammonium acetate, pH 4 buffer and mix well. The resulting blood samples were transferred to individual polypropylene tubes and immediately placed on dry ice until storage at nominally −80° C. prior to LC-MS/MS analysis.

[1] = day 49, single IM Example 1A 20 mg/kg
[2] = day 56, single IM Example 1A 20 mg/kg
[3] = day 63, single IM Example 1A 20 mg/kg
[4] = day 70, single IM Example 1A 20 mg/kg
[5] = day 77, single IM Example 1A 20 mg/kg
[6] = day 84, single IM Example 1A 20 mg/kg
[7] = day 91, single IM Example 1A 20 mg/kg
[8] = day 28, single IM Example 2B 20 mg/kg
[9] = day 35, single IM Example 2B 20 mg/kg
[10] = day 35, single IM Example 18A 54 mg/kg
[11] = day 42, single IM Example 18A 54 mg/kg
[12] = day 49, single IM Example 18A 54 mg/kg

C#C[C@]1(COP(=O)(N[C@@H](Cc2ccccc2)C(=O)OCCCCCCCCCCCCCCCCCCCCCC)Oc2ccccc2)O[C@@H](n2cnc3c(N)nc(F)nc32)C[C@@H]1O (single isomer, unassigned) [Example 1A]
Mean concentration of EFdA (day 21, single IM Example 1A 20 mg/kg): BQL
Mean concentration of EFdA (day 35, single IM Example 1A 20 mg/kg): BQL
Mean concentration of EFdA (day 42, single IM Example 1A 20 mg/kg): BQL
Mean concentration of EFdA [1]: BQL
Mean concentration of Example 1A [1]: BQL (BQL = below quantification limit, 0.3-0.5 ng/mL for Example 1A and 0.1-o.3 ng/mL for EFdA)
Mean concentration of EFdA [2]: BQL
Mean concentration of Example 1A [2]: BQL (BQL = below quantification limit, 0.3-0.5 ng/mL for Example 1A and 0.1-o.3 ng/mL for EFdA)
Mean concentration of EFdA [3]: BQL
Mean concentration of Example 1A [3]: BQL (BQL = below quantification limit, 0.3-0.5 ng/mL for Example 1A and 0.1-o.3 ng/mL for EFdA)
Mean concentration of EFdA [4]: BQL
Mean concentration of Example 1A [4]: BQL (BQL = below quantification limit, 0.3-0.5 ng/mL for Example 1A and 0.1-o.3 ng/mL for EFdA)
Mean concentration of EFdA [5]: BQL
Mean concentration of Example 1A [5]: BQL (BQL = below quantification limit, 0.3-0.5 ng/mL for Example 1A and 0.1-o.3 ng/mL for EFdA)
Mean concentration of EFdA [6]: BQL
Mean concentration of Example 1A [6]: BQL (BQL = below quantification limit, 0.3-0.5 ng/mL for Example 1A and 0.1-o.3 ng/mL for EFdA)
Mean concentration of EFdA [7]: BQL
Mean concentration of Example 1A [7]: BQL (BQL = below quantification limit, 0.3-0.5 ng/mL for Example 1A and 0.1-o.3 ng/mL for EFdA)
concentration at 7 day (male, Wistar Han, rat, in vivo, 20 mg/kg equivalent of EFdA, day 7, single IM Example 1A 20 mg/kg, read-out: Mean concentration of Example 1A): 6.38 ng/mL
concentration at 14 day (male, Wistar Han, rat, in vivo, 20 mg/kg equivalent of EFdA, day 14, single IM Example 1A 20 mg/kg, read-out: Mean concentration of Example 1A): 1.86 ng/mL
concentration at 21 day (male, Wistar Han, rat, in vivo, 20 mg/kg equivalent of EFdA, day 21, single IM Example 1A 20 mg/kg, read-out: Mean concentration of Example 1A): 3.42 ng/mL
concentration at 1 day (male, Wistar Han, rat, in vivo, day 1, single IM Example 1A 20 mg/kg, read-out: Mean concentration of Example 1A): 65.3 ng/mL
concentration at 28 day (male, Wistar Han, rat, in vivo, day 28, single IM Example 1A 20 mg/kg, read-out: Mean concentration of Example 1A): 2.72 ng/mL
concentration at 35 day (male, Wistar Han, rat, in vivo, day 35, single IM Example 1A 20 mg/kg, read-out: Mean concentration of Example 1A): 1.34 ng/mL
concentration at 42 day (male, Wistar Han, rat, in vivo, day 42, single IM Example 1A 20 mg/kg, read-out: Mean concentration of Example 1A): 0.633 ng/mL

C#C[C@]1(COP(=O)(N[C@@H](Cc2ccccc2)C(=O)OCCCCCCCCCCCCCCCC)Oc2ccccc2)O[C@@H](n2cnc3c(N)nc(F)nc32)C[C@@H]1O (single isomer, unassigned) [Example 2B]
Mean concentration of EFdA (day 1, single IM Example 2B 20 mg/kg): BQL (BQL = below quantification limit, 0.2-0.3 ng/mL for both)
Mean concentration of EFdA (day 7, single IM Example 2B 20 mg/kg): BQL (BQL = below quantification limit, 0.2-0.3 ng/mL for both)
Mean concentration of EFdA (day 14, single IM Example 2B 20 mg/kg): BQL (BQL = below quantification limit, 0.2-0.3 ng/mL for both)
Mean concentration of EFdA (day 21, single IM Example 2B 20 mg/kg): BQL (BQL = below quantification limit, 0.2-0.3 ng/mL for both)
Mean concentration of EFdA [8]: BQL (BQL = below quantification limit, 0.2-0.3 ng/mL for both)
Mean concentration of Example 2B [8]: BQL (BQL = below quantification limit, 0.2-0.3 ng/mL for both)
Mean concentration of EFdA [9]: BQL (BQL = below quantification limit, 0.2-0.3 ng/mL for both)
Mean concentration of Example 2B [9]: BQL (BQL = below quantification limit, 0.2-0.3 ng/mL for both)
concentration at 1 day (male, Wistar Han, rat, in vivo, day 1, single IM Example 2B 20 mg/kg, read-out: Mean concentration of Example 2B): 0.514 ng/mL
concentration at 7 day (male, Wistar Han, rat, in vivo, day 7, single IM Example 2B 20 mg/kg, read-out: Mean concentration of Example 2B): 0.708 ng/mL
concentration at 14 day (male, Wistar Han, rat, in vivo, day 14, single IM Example 2B 20 mg/kg, read-out: Mean concentration of Example 2B): 1.11 ng/mL
concentration at 21 day (male, Wistar Han, rat, in vivo, day 21, single IM Example 2B 20 mg/kg, read-out: Mean concentration of Example 2B): 1.33 ng/mL

C#C[C@]1(COP(=O)(N[C@@H](Cc2ccccc2)C(=O)OCCCCCCCCCC)Oc2ccccc2)O[C@@H](n2cnc3c(N)nc(F)nc32)C[C@@H]1O (single isomer, unassigned) [Example 4B]
Mean concentration of Example 4B (day 0.0208): BQL (BQL = below quantification limit, 0.5 ng/mL for Example 4B and 0.5 to 1 ng/mL for EFdA)
Mean concentration of Example 4B (day 0.0417): BQL (BQL = below quantification limit, 0.5 ng/mL for Example 4B and 0.5 to 1 ng/mL for EFdA)
Mean concentration of Example 4B (day 0.125): BQL (BQL = below quantification limit, 0.5 ng/mL for Example 4B and 0.5 to 1 ng/mL for EFdA)
Mean concentration of Example 4B (day 0.208): BQL (BQL = below quantification limit, 0.5 ng/mL for Example 4B and 0.5 to 1 ng/mL for EFdA)
Mean concentration of Example 4B (day 0.292): BQL (BQL = below quantification limit, 0.5 ng/mL for Example 4B and 0.5 to 1 ng/mL for EFdA)
Mean concentration of Example 4B (day 1): BQL (BQL = below quantification limit, 0.5 ng/mL for Example 4B and 0.5 to 1 ng/mL for EFdA)
Mean concentration of Example 4B (day 2): BQL (BQL = below quantification limit, 0.5 ng/mL for Example 4B and 0.5 to 1 ng/mL for EFdA)
Mean concentration of Example 4B (day 3): BQL (BQL = below quantification limit, 0.5 ng/mL for Example 4B and 0.5 to 1 ng/mL for EFdA)
Mean concentration of Example 4B (day 4): BQL (BQL = below quantification limit, 0.5 ng/mL for Example 4B and 0.5 to 1 ng/mL for EFdA)
Mean concentration of Example 4B (day 5): BQL (BQL = below quantification limit, 0.5 ng/mL for Example 4B and 0.5 to 1 ng/mL for EFdA)
Mean concentration of Example 4B (day 7): BQL (BQL = below quantification limit, 0.5 ng/mL for Example 4B and 0.5 to 1 ng/mL for EFdA)
Mean concentration of EFdA (day 14, single IM Example 4B 20 mg/kg equivalent of EFdA): BQL (BQL = below quantification limit, 0.5 ng/mL for Example 4B and 0.5 to 1 ng/mL for EFdA)
Mean concentration of EFdA (day 17, single IM Example 4B 20 mg/kg equivalent of EFdA): BQL (BQL = below quantification limit, 0.5 ng/mL for Example 4B and 0.5 to 1 ng/mL for EFdA)
Mean concentration of EFdA (day 21, single IM Example 4B 20 mg/kg equivalent of EFdA): BQL (BQL = below quantification limit, 0.5 ng/mL for Example 4B and 0.5 to 1 ng/mL for EFdA)
Mean concentration of EFdA (day 24, single IM Example 4B 20 mg/kg equivalent of EFdA): BQL (BQL = below quantification limit, 0.5 ng/mL for Example 4B and 0.5 to 1 ng/mL for EFdA)
Mean concentration of EFdA (day 28, single IM Example 4B 20 mg/kg equivalent of EFdA): BQL (BQL = below quantification limit, 0.5 ng/mL for Example 4B and 0.5 to 1 ng/mL for EFdA)
Mean concentration of EFdA (day 31, single IM Example 4B 20 mg/kg equivalent of EFdA): BQL (BQL = below quantification limit, 0.5 ng/mL for Example 4B and 0.5 to 1 ng/mL for EFdA)

C#C[C@]1(COP(=O)(N[C@@H](Cc2ccccc2)C(=O)OCCCCCCCCCCCCCC)Oc2ccccc2)O[C@@H](n2cnc3c(N)nc(F)nc32)C[C@@H]1O (single isomer, unassigned) [Example 18A]
Mean concentration of EFdA (day 28, single IM Example 18A 54 mg/kg): BQL (BQL = below quantification limit, 0.3 ng/mL for both)
Mean concentration of EFdA [10]: BQL (BQL = below quantification limit, 0.3 ng/mL for both)
Mean concentration of Example 18A [10]: BQL (BQL = below quantification limit, 0.3 ng/mL for both)
Mean concentration of EFdA [11]: BQL (BQL = below quantification limit, 0.3 ng/mL for both)
Mean concentration of Example 18A [11]: BQL (BQL = below quantification limit, 0.3 ng/mL for both)
Mean concentration of EFdA [12]: BQL (BQL = below quantification limit, 0.3 ng/mL for both)
Mean concentration of Example 18A [12]: BQL (BQL = below quantification limit, 0.3 ng/mL for both)
concentration at 1 day (male, Wistar Han, rat, in vivo, day 1, single IM Example 18A 54 mg/kg, read-out: Mean concentration of Example 18A): 2.47 ng/mL
concentration at 7 day (male, Wistar Han, rat, in vivo, day 7, single IM Example 18A 54 mg/kg, read-out: Mean concentration of Example 18A): 12 ng/mL
concentration at 14 day (male, Wistar Han, rat, in vivo, day 14, single IM Example 18A 54 mg/kg, read-out: Mean concentration of Example 18A): 1.44 ng/mL
concentration at 21 day (male, Wistar Han, rat, in vivo, day 21, single IM Example 18A 54 mg/kg, read-out: Mean concentration of Example 18A): 0.947 ng/mL
concentration at 28 day (male, Wistar Han, rat, in vivo, day 28, single IM Example 18A 54 mg/kg, read-out: Mean concentration of Example 18A): 0.614 ng/mL

Source: US20230151049A1, “Compounds Useful in HIV Therapy” (priority 2020, published 2023)
